Assay results from US12453737B2, “Method for hydrating lyophilized cyclophosphamide composition and product thereof” (priority 2018, dated 2025).
Like-named read-outs stand apart in the source and are kept apart here.

Columns and labels:
[1] = Stability in 45° C. oven, CPP content; assay type: physicochemical; settings: raw material, comparison
Method: The moisture content, CPP content and redissolving time were determined for CPP freeze-dried composition hydrated with saturated sodium chloride solution in the freeze-drying box, respectively. In addition, the CPP freeze-dried compositions hydrated for 16 h and 24 h were placed in 45° C. oven and sampled for determining CPP contents after 1 week and 2 weeks, respectively.
Moisture content, CPP content and redissolving time were determined for CPP freeze-dried composition hydrated with saturated sodium chloride solution in the dryer, respectively. In addition, the CPP freeze-dried composition hydrated for 16 h was placed in 45° C. oven, sampled after 1 week and 2 weeks, respectively and determined for CPP contents. The CPP freeze-dried composition hydrated for 16 h was placed in 40° C./75% RH stability test chamber, was sampled after 1 month and 3 months, and determined for CPP contents, which were compared with CPP monohydrate obtained by prior art hydrating process.
The moisture content, CPP content and redissolving time were determined for CPP freeze-dried composition hydrated with saturated potassium sulfate solution in the dryer, respectively. In addition, the CPP freeze-dried composition hydrated for 16 h was placed in 45° C. oven and was sampled for determining CPP contents after 1 week and 2 weeks, respectively. […]

[2] = Stability in 40° C./75% RH stability test chamber, CPP content; assay type: physicochemical; settings: raw material, comparison
Method: The CPP freeze-dried composition hydrated for 16 h was placed in 40° C./75% RH stability test chamber, was sampled after 1 month and 3 months, and determined for CPP contents, which were compared with CPP monohydrate obtained by prior art hydrating process.
The CPP freeze-dried composition hydrated for 16 h was placed in 40° C./75% RH stability test chamber, sampled after 1 month and 3 months for determining CPP contents.

[3] = assay type: physicochemical; settings: hydration pressure 50 kPa
[4] = assay type: physicochemical; settings: strength NA, hydration solution NA
Method: BD is calculated by the following formula: BD (g/mL)=W/V0 • wherein • W is the theoretical weight, g; • V0 is the macroscopic volume, mL. • V0 is calculated by the following formula: V0 (mL)=πD^2h/4 • wherein • D is the theoretical inside diameter, cm; • h is the height, cm.

[5] = assay type: physicochemical; settings: no strength, no hydration solution
Method: TD of the test sample is measured as per the Method I described in USP <616> which is obtained by mechanically tapping a graduated measuring cylinder (TAP Density Tester, Sotax TD2) containing the test sample.

[6] = Skeletal density (gas pycnometer); assay type: physicochemical; settings: no strength, no hydration solution
Method: Skeletal Density, also known as true density, is determined at room temperature by Gas Pycnometer (Micromeritics Accupyc II 1340).

[7] = assay type: physicochemical; settings: reconstituted with 0.9% sodium chloride injection to 20 mg/ml
Method: Then content and impurity profiles in Room Temperature (RT) and Refrigerator (2-8° C.) are determined respectively.

[8] = assay type: physicochemical; settings: hydration solution NA, 0.9% sodium chloride, 250 rpm, room temperature
Method: Then the glass vial was placed on cyclotron (HY-5, Shanghai Suhao intelligent system Co. Ltd) making the glass vial oscillate at 250 rpm at room temperature to dissolve the active ingredient completely. The redissolving time was recorded in Table 18.

[9] = assay type: physicochemical; settings: no hydration solution
Method: The hydrated CPP freeze-dried composition was stirred by weighting scoop gently until flowable powder comes into being. Then 1-2 g test sample was added on injection plate. Test method and parameters were as follows:
It will be understood by a person of ordinary skill in the art that a common approach to defining the distribution width is to cite three values on the x-axis, the D10, D50, and D90. As used herein, the term (“D50” refers to the median particle diameter, wherein half of the particle population has a diameter below such value. As used herein, the teed “D90,” refers to the particle diameter wherein 90% of the particle population has a diameter below such value. As used herein, the term “D10,” refers to the particle diameter wherein 10% of the particle population has a diameter below such value. PSD results were listed in Table 19.

O=P1(N(CCCl)CCCl)NCCCO1 (stereo not shown) [CPP monohydrate raw material, Cyclophosphamide monohydrate]
Stability-CPP content % 45° C.-2 weeks [1]: 101.8% | Stability-CPP content % 40° C./75% RH-3 months [2]: 86.1%

O=P1(N(CCCl)CCCl)NCCCO1 (stereo not drawn) [P—[N,N-bis(β-chloroethyl)]-1-oxa-3-aza-2-phosphocyclohexane-P-oxide]
Content (%) ([3]; 45° C. -1 Week): 82.6% | Impurity A (%) ([3]; 45° C. -1 Week): 0.65% | Impurity B (%) ([3]; 45° C. -1 Week): 0.61% | Impurity D (%) ([3]; 45° C. -1 Week): 0.71% | Max. individual unknown impurity (%) ([3]; 45° C. -1 Week): 2.01% | Total impurities (%) ([3]; 45° C. -1 Week): 5.66% | Content (%) ([3]; 45° C. -2 Weeks): 45.8% | Impurity A (%) ([3]; 45° C. -2 Weeks): 1.82% | Impurity B (%) ([3]; 45° C. -2 Weeks): 1.40% | Impurity D (%) ([3]; 45° C. -2 Weeks): 0.98% | Max. individual unknown impurity (%) ([3]; 45° C. -2 Weeks): 1.56% | Total impurities (%) ([3]; 45° C. -2 Weeks): 15.59% | Bulk Density [4]: 0.6246 g/mL | Tapped Density [5]: 0.9369 g/mL | Skeletal Density [6]: 1.4286 g/mL | Impurity A ([7]; 0 h (initial)): 0.03 | Impurity B ([7]; 0 h (initial)): 0.03 | Impurity D ([7]; 0 h (initial)): 0.00 | Individual unknown impurity ([7]; 0 h (initial)): 0.08 | Total impurities ([7]; 0 h (initial)): 0.15 | Content ([7]; 3 Days (2-8° C.)): 96.7% | Impurity A ([7]; 3 Days (2-8° C.)): 0.00 | Impurity B ([7]; 3 Days (2-8° C.)): 0.45 | Impurity D ([7]; 3 Days (2-8° C.)): 0.00 | Individual unknown impurity ([7]; 3 Days (2-8° C.)): 0.09 | Total impurities ([7]; 3 Days (2-8° C.)): 0.57 | Content ([7]; 6 Days (2-8° C.)): 95.2% | Impurity A ([7]; 6 Days (2-8° C.)): 0.00 | Impurity B ([7]; 6 Days (2-8° C.)): 0.64 | Impurity D ([7]; 6 Days (2-8° C.)): 0.00 | Individual unknown impurity ([7]; 6 Days (2-8° C.)): 0.12 | Total impurities ([7]; 6 Days (2-8° C.)): 0.77 | Content ([7]; 6 h (RT)): 95.3% | Impurity A ([7]; 6 h (RT)): 0.00 | Impurity B ([7]; 6 h (RT)): 0.71 | Impurity D ([7]; 6 h (RT)): 0.00 | Individual unknown impurity ([7]; 6 h (RT)): 0.06 | Total impurities ([7]; 6 h (RT)): 0.81 | Content ([7]; 12 h (RT)): 96.7% | Impurity A ([7]; 12 h (RT)): 0.00 | Impurity B ([7]; 12 h (RT)): 1.01 | Impurity D ([7]; 12 h (RT)): 0.05 | Individual unknown impurity ([7]; 12 h (RT)): 0.14 | Total impurities ([7]; 12 h (RT)): 1.33 | Content ([7]; 24 h (RT)): 97.0% | Impurity A ([7]; 24 h (RT)): 0.03 | Impurity B ([7]; 24 h (RT)): 1.82 | Impurity D ([7]; 24 h (RT)): 0.30 | Individual unknown impurity ([7]; 24 h (RT)): 0.47 | Total impurities ([7]; 24 h (RT)): 2.64 | Redissolving Time ([8]; strength 0.5 g): 8.7 min | Redissolving Time ([8]; strength 1 g): 11.2 min | Redissolving Time ([8]; strength 2 g): 16.4 min | D10 (μm) [9]: 5.6 μm | D50 (μm) [9]: 34.8 μm | D90 (μm) [9]: 262.0 μm
